# ChEMBL document CHEMBL1201862, “PubChem BioAssay data set” (2004)
#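 Five concentrations, 48 hours, 96-well plates. GI50 marks 50% less growth.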 Activity calls are given as the source filed them. Rule as the data show it: active = GI50 up to about 1.1 µM and inactive = higher.
# What was measured:
# Assay in all cases: NCI tumour cell line growth inhibition, 48 h
# [1] = system: BT-549
# [2] = system: SF-295
# [3] = system: Malme-3M
# [4] = system: A549
# [5] = system: OVCAR-3
# [6] = system: U-251
# [7] = system: HCT-116
# [8] = system: MOLT-4
# [9] = system: COLO 205
# [10] = system: RXF 393
# [11] = system: OVCAR-5
# [12] = system: NCI-H460
# [13] = system: UACC-62
# [14] = system: OVCAR-4
# [15] = system: T47D
# [16] = system: MDA-N
# [17] = system: NCI/ADR-RES
# [18] = system: KM12
# [19] = system: NCI-H23
# [20] = system: HT-29
# [21] = system: IGROV-1
# [22] = system: SR
# [23] = system: EKVX
# [24] = system: PC-3
# [25] = system: LOX IMVI
# [26] = system: MDA-MB-435
# [27] = system: SK-MEL-5
# [28] = system: MDA-MB-231
# [29] = system: CAKI-1
# [30] = system: SW-620
# [31] = system: ACHN
# [32] = system: SF-268
# [33] = system: OVCAR-8
# [34] = system: K562
# [35] = system: HL-60
# [36] = system: HCT-15
# [37] = system: UO-31
# [38] = system: UACC-257
# [39] = system: NCI-H226
# [40] = system: SNB-75
# [41] = system: SK-MEL-28
# [42] = system: CCRF-CEM
# [43] = system: 786-0
# [44] = system: MCF7
# [45] = system: SK-MEL-2
# [46] = system: SK-OV-3
# [47] = system: HOP-62
# [48] = system: A498
# [49] = system: RPMI-8226
# [50] = system: HOP-92
# [51] = system: SF-539
# [52] = system: TK-10
# [53] = system: SNB-19
# [54] = system: M14
# [55] = system: Hs-578T
# [56] = system: NCI-H522
# [57] = system: DU-145
# [58] = system: HCC 2998
# [59] = system: SN12C
compound,measurement,setting,value
CC1CC(c2ccccc2)Nc2nc3ccccc3n21 (stereo not given),GI50,[1],> 100 µM (inactive)
same,GI50,[2],> 100 µM (inactive)
same,GI50,[3],> 100 µM (inactive)
same,GI50,[4],> 100 µM (inactive)
same,GI50,[5],> 100 µM (inactive)
same,GI50,[6],> 100 µM (inactive)
same,GI50,[7],66.4 µM (inactive)
same,GI50,[8],> 100 µM (inactive)
same,GI50,[9],> 100 µM (inactive)
same,GI50,[10],> 100 µM (inactive)
same,GI50,[11],> 100 µM (inactive)
same,GI50,[12],> 100 µM (inactive)
same,GI50,[13],> 100 µM (inactive)
same,GI50,[14],> 100 µM (inactive)
same,GI50,[15],> 100 µM (inactive)
same,GI50,[16],> 100 µM (inactive)
same,GI50,[17],> 100 µM (inactive)
same,GI50,[18],> 100 µM (inactive)
same,GI50,[19],> 100 µM (inactive)
same,GI50,[20],39.1 µM (inactive)
same,GI50,[21],> 100 µM (inactive)
same,GI50,[22],> 100 µM (inactive)
same,GI50,[23],> 100 µM (inactive)
same,GI50,[24],> 100 µM (inactive)
same,GI50,[25],> 100 µM (inactive)
same,GI50,[26],> 100 µM (inactive)
same,GI50,[27],> 100 µM (inactive)
same,GI50,[28],> 100 µM (inactive)
same,GI50,[29],> 100 µM (inactive)
same,GI50,[30],> 100 µM (inactive)
same,GI50,[31],> 100 µM (inactive)
same,GI50,[32],> 100 µM (inactive)
same,GI50,[33],> 100 µM (inactive)
same,GI50,[34],> 100 µM (inactive)
same,GI50,[35],> 100 µM (inactive)
same,GI50,[36],> 100 µM
same,GI50,[37],59.8 µM (inactive)
same,GI50,[38],> 100 µM (inactive)
same,GI50,[39],> 100 µM (inactive)
same,GI50,[40],> 100 µM (inactive)
same,GI50,[41],> 100 µM (inactive)
same,GI50,[42],> 100 µM (inactive)
same,GI50,[43],> 100 µM (inactive)
same,GI50,[44],> 100 µM (inactive)
same,GI50,[45],> 100 µM (inactive)
same,GI50,[46],> 100 µM (inactive)
same,GI50,[47],> 100 µM (inactive)
same,GI50,[48],> 100 µM (inactive)
same,GI50,[49],> 100 µM (inactive)
same,GI50,[50],> 100 µM (inactive)
same,GI50,[51],> 100 µM (inactive)
same,GI50,[52],> 100 µM (inactive)
same,GI50,[53],> 100 µM (inactive)
same,GI50,[54],> 100 µM (inactive)
same,GI50,[55],> 100 µM (inactive)
same,GI50,[56],> 100 µM (inactive)
O=C1Oc2ccccc2C(=O)/C1=C/N1C(=O)CNC1=S,GI50,[1],> 100 µM (inactive)
same,GI50,[2],> 100 µM (inactive)
same,GI50,[4],> 100 µM (inactive)
same,GI50,[5],> 100 µM (inactive)
same,GI50,[6],> 100 µM (inactive)
same,GI50,[57],> 100 µM (inactive)
same,GI50,[7],> 100 µM (inactive)
same,GI50,[8],> 100 µM (inactive)
same,GI50,[9],> 100 µM (inactive)
same,GI50,[10],26.9 µM (inactive)
same,GI50,[11],> 100 µM (inactive)
same,GI50,[12],63 µM (inactive)
same,GI50,[13],> 100 µM (inactive)
same,GI50,[14],> 100 µM (inactive)
same,GI50,[15],> 100 µM (inactive)
same,GI50,[16],> 100 µM (inactive)
same,GI50,[17],> 100 µM (inactive)
same,GI50,[18],> 100 µM (inactive)
same,GI50,[19],> 100 µM (inactive)
same,GI50,[20],> 100 µM (inactive)
same,GI50,[21],> 100 µM (inactive)
same,GI50,[23],> 100 µM (inactive)
same,GI50,[24],> 100 µM (inactive)
same,GI50,[25],> 100 µM (inactive)
same,GI50,[26],> 100 µM (inactive)
same,GI50,[27],> 100 µM (inactive)
same,GI50,[28],> 100 µM (inactive)
same,GI50,[29],> 100 µM (inactive)
same,GI50,[30],> 100 µM (inactive)
same,GI50,[31],56.8 µM (inactive)
same,GI50,[32],> 100 µM (inactive)
same,GI50,[33],> 100 µM (inactive)
same,GI50,[34],> 100 µM (inactive)
same,GI50,[35],44 µM (inactive)
same,GI50,[36],> 100 µM
same,GI50,[37],23 µM (inactive)
same,GI50,[38],> 100 µM (inactive)
same,GI50,[39],> 100 µM (inactive)
same,GI50,[41],> 100 µM (inactive)
same,GI50,[42],80.2 µM (inactive)
same,GI50,[43],> 100 µM (inactive)
same,GI50,[44],> 100 µM (inactive)
same,GI50,[45],> 100 µM (inactive)
same,GI50,[46],95.1 µM (inactive)
same,GI50,[47],> 100 µM (inactive)
same,GI50,[58],> 100 µM (inactive)
same,GI50,[59],> 100 µM (inactive)
same,GI50,[49],> 100 µM (inactive)
same,GI50,[51],> 100 µM (inactive)
same,GI50,[52],> 100 µM (inactive)
same,GI50,[53],> 100 µM (inactive)
same,GI50,[54],> 100 µM (inactive)
same,GI50,[55],> 100 µM (inactive)
same,GI50,[56],> 100 µM (inactive)
